{"source": "patent US4294972A", "about": "“1,2-Disubstituted oxo triazolidine” (Beecham Group Limited, priority 1978, dated 1981)", "key": {"[1]": {"system": "bronchoconstriction induced by an histamine aerosol", "assay": "Herxheimer test: protection of conscious guinea pigs against histamine aerosol induced bronchoconstriction", "assay_type": "in vivo, guinea pig", "settings": "at 10 μg/ml after two minutes, mean of several experiments", "protocol": "2. The compounds were also examined for their ability to protect conscious guinea pigs against bronchoconstriction induced by an histamine aerosol (Herxheimer test). In these experiments the compounds were administered by aerosol. The results are the mean of several experiments."}, "[2]": {"system": "5-hydroxytryptamine or histamine induced bronchoconstriction", "assay": "Konzett-Rossler preparation: inhibition of 5-hydroxytryptamine or histamine induced bronchoconstriction, anaesthetised artificially respired guinea pig", "assay_type": "in vivo", "settings": "Cavia porcellus, iv", "protocol": "1. The compounds were examined for their ability to inhibit 5-hydroxytryptamine or histamine induced bronchoconstriction in the anaesthetised, artificially respired guinea pig (Konzett-Rossler preparation). The compounds were administered intravenously."}}, "data": [{"smiles": "CCCCCCC(C)(O)CCn1c(=O)n(C)c(=O)n1CCCCCCCC(C)=O", "note": "(stereo not drawn) [Compound 1, 1-(8-oxononyl)-2-(3\"-hydroxy-3\"-methylnonyl)-4-methyl-1,2,4-triazolidine-3,5-dione]", "values": [{"measurement": "Herxheimer % increase in preconvulsive coughing time", "setting": "[1]", "value": "Active"}, {"measurement": "ED50", "setting": "[2]", "value": 2.7, "unit": "µg/kg"}]}, {"smiles": "CCCCCC(O)CCn1c(=O)n(C)c(=O)n1CCCCCCCC(C)=O", "note": "(stereo not drawn) [Compound 8]", "values": [{"measurement": "Herxheimer % increase in preconvulsive coughing time", "setting": "[1]", "value": 31, "unit": "%"}, {"measurement": "ED50", "setting": "[2]", "value": 6.9, "unit": "µg/kg"}]}, {"smiles": "CCCCCCC(C)(O)CCn1c(=O)n(C)c(=S)n1CCCCCCCC(C)=O", "note": "(stereo not drawn) [Compound 9]", "values": [{"measurement": "Herxheimer % increase in preconvulsive coughing time", "setting": "[1]", "value": 52, "unit": "%"}, {"measurement": "ED50", "setting": "[2]", "value": 26.5, "unit": "µg/kg"}]}]}
